Values of other authors in patent US20240325308A1, “AMNIOTIC FLUID STABILIZED COMPOSITIONS AND METHODS FOR IN UTERO DELIVERY OF THERAPEUTIC AGENTS” (The Trustees of the University of Pennsylvania, priority 2021, published 2024).

Test system: fetal lung
Conditions: vitelline vein injection, gestational age E16 fetuses

CCCCCCCCCCCCC(O)CN(CCOCCN(CC(O)CCCCCCCCCCCC)CC(O)CCCCCCCCCCCC)CCN1CCN(CCOCCN(CC(O)CCCCCCCCCCCC)CC(O)CCCCCCCCCCCC)CC1 (stereo not shown) [B-4, 1,1′-((2-(2-(4-(2-((2-(2-(bis(2-hydroxytetradecyl)amino)ethoxy)ethyl)(2-hydroxytetradecyl)amino)ethyl)piperazin-1-yl)ethoxy)ethyl)azanediyl)bis(tetradecan-2-ol)]
Fetal lung delivery of LNPs formulated with the ionizable lipid: highest fetal lung delivery
